Experimental data reported in ChEMBL document CHEMBL4800722, “Data for DCP probe BI 605906” (2021).

Legend:
[1] = biological target: Inhibitor of nuclear factor kappa-B kinase subunit beta (Homo sapiens, UniProt O14920); assay: Biochemical assay
[2] = biological target: Histamine H3 receptor (Homo sapiens) (UniProt Q9Y5N1); conditions: Compound concentration 10.0 uM
[3] = biological target: Sodium-dependent noradrenaline transporter (Homo sapiens) (UniProt P23975); conditions: Compound concentration 10.0 uM
[4] = biological target: 5-hydroxytryptamine receptor 1E (Homo sapiens) (UniProt P28566); conditions: Compound concentration 10.0 uM
[5] = biological target: D(1A) dopamine receptor (Homo sapiens) (UniProt P21728); conditions: Compound concentration 10.0 uM
[6] = biological target: Alpha-1B adrenergic receptor (Homo sapiens) (UniProt P35368); conditions: Compound concentration 10.0 uM
[7] = biological target: Kappa-type opioid receptor (Homo sapiens) (UniProt P41145); conditions: Compound concentration 10.0 uM
[8] = biological target: Muscarinic acetylcholine receptor M5 (Homo sapiens) (UniProt P08912); conditions: Compound concentration 10.0 uM
[9] = biological target: Mu-type opioid receptor (Homo sapiens) (UniProt P35372); conditions: Compound concentration 10.0 uM
[10] = biological target: Alpha-2B adrenergic receptor (Homo sapiens) (UniProt P18089); conditions: Compound concentration 10.0 uM
[11] = biological target: T1, D(4) dopamine receptor (Homo sapiens) (UniProt P21917); conditions: Compound concentration 10.0 uM
T1 sequence (whole entry): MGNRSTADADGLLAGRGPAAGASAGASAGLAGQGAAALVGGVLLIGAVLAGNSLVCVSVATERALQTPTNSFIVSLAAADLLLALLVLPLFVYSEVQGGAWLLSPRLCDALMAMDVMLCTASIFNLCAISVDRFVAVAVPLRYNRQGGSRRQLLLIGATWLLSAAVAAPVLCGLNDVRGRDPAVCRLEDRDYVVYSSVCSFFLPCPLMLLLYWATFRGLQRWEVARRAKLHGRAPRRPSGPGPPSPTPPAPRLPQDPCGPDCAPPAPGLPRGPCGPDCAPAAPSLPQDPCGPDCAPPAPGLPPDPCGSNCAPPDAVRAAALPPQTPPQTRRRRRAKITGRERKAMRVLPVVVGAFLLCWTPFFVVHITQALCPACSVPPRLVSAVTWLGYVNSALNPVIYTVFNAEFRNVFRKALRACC

[12] = biological target: 5-hydroxytryptamine receptor 7 (Homo sapiens) (UniProt P34969); conditions: Compound concentration 10.0 uM
[13] = biological target: T2, Sodium-dependent dopamine transporter (Homo sapiens, UniProt Q01959); assay: GPCRScan assay: inhibition of DAT; parameters: radioligand conc. used [nm] 3.6 – 16.0, parental cells stable HEK
[14] = biological target: Sigma non-opioid intracellular receptor 1 (Homo sapiens) (UniProt Q99720); conditions: Compound concentration 10.0 uM
[15] = biological target: Alpha-2C adrenergic receptor (Homo sapiens) (UniProt P18825); conditions: Compound concentration 10.0 uM
[16] = biological target: 5-hydroxytryptamine receptor 2B (Homo sapiens) (UniProt P41595); conditions: Compound concentration 10.0 uM
[17] = biological target: 5-hydroxytryptamine receptor 6 (Homo sapiens) (UniProt P50406); conditions: Compound concentration 10.0 uM
[18] = biological target: Histamine H2 receptor (Homo sapiens) (UniProt P25021); conditions: Compound concentration 10.0 uM
[19] = biological target: 5-hydroxytryptamine receptor 1D (Homo sapiens) (UniProt P28221); conditions: Compound concentration 10.0 uM
[20] = biological target: T3, GABA-A receptor; anion channel (Rattus norvegicus) (UniProt O09028+P15431+P18506+P18508+P19969+P20236+P23574+P23576+P28471+P28473+P30191+P62813+P63079+P63138+Q91ZM7+Q9ES14); conditions: Compound concentration 10.0 uM
[21] = biological target: D(2) dopamine receptor (Homo sapiens) (UniProt P14416); conditions: Compound concentration 10.0 uM
[22] = biological target: Alpha-2A adrenergic receptor (Homo sapiens) (UniProt P08913); conditions: Compound concentration 10.0 uM
[23] = biological target: Muscarinic acetylcholine receptor M1 (Homo sapiens) (UniProt P11229); conditions: Compound concentration 10.0 uM
[24] = biological target: T2, Sodium-dependent dopamine transporter; conditions: Compound concentration 10.0 uM
[25] = biological target: T3, GABA-A receptor; anion channel (Rattus norvegicus); conditions: Compound concentration 10.0 uM; remark: listed apart in the source
[26] = biological target: 5-hydroxytryptamine receptor 3A (Homo sapiens) (UniProt P46098); conditions: Compound concentration 10.0 uM
Rattus norvegicus = species on record: Rattus norvegicus; conditions: Compound concentration 10.0 uM
[27] = biological target: Sigma intracellular receptor 2 (Homo sapiens) (UniProt Q5BJF2); conditions: Compound concentration 10.0 uM
[28] = biological target: Histamine H1 receptor (Homo sapiens) (UniProt P35367); conditions: Compound concentration 10.0 uM
[29] = biological target: 5-hydroxytryptamine receptor 2A (Homo sapiens) (UniProt P28223); conditions: Compound concentration 10.0 uM
[30] = biological target: Muscarinic acetylcholine receptor M3 (Homo sapiens) (UniProt P20309); conditions: Compound concentration 10.0 uM
[31] = biological target: Alpha-1D adrenergic receptor (Homo sapiens) (UniProt P25100); conditions: Compound concentration 10.0 uM
[32] = biological target: Alpha-1A adrenergic receptor (Homo sapiens) (UniProt P35348); conditions: Compound concentration 10.0 uM
[33] = biological target: 5-hydroxytryptamine receptor 5A (Homo sapiens) (UniProt P47898); conditions: Compound concentration 10.0 uM
[34] = biological target: Muscarinic acetylcholine receptor M2 (Homo sapiens) (UniProt P08172); conditions: Compound concentration 10.0 uM
[35] = biological target: Sodium-dependent serotonin transporter (Homo sapiens) (UniProt P31645); conditions: Compound concentration 10.0 uM
[36] = biological target: 5-hydroxytryptamine receptor 2C (Homo sapiens) (UniProt P28335); conditions: Compound concentration 10.0 uM
[37] = biological target: Muscarinic acetylcholine receptor M4 (Homo sapiens) (UniProt P08173); conditions: Compound concentration 10.0 uM
[38] = biological target: 5-hydroxytryptamine receptor 1A (Homo sapiens) (UniProt P08908); conditions: Compound concentration 10.0 uM
[39] = biological target: Beta-2 adrenergic receptor (Homo sapiens) (UniProt P07550); conditions: Compound concentration 10.0 uM
[40] = biological target: Delta-type opioid receptor (Homo sapiens) (UniProt P41143); conditions: Compound concentration 10.0 uM

T2 sequence (Q01959 whole entry): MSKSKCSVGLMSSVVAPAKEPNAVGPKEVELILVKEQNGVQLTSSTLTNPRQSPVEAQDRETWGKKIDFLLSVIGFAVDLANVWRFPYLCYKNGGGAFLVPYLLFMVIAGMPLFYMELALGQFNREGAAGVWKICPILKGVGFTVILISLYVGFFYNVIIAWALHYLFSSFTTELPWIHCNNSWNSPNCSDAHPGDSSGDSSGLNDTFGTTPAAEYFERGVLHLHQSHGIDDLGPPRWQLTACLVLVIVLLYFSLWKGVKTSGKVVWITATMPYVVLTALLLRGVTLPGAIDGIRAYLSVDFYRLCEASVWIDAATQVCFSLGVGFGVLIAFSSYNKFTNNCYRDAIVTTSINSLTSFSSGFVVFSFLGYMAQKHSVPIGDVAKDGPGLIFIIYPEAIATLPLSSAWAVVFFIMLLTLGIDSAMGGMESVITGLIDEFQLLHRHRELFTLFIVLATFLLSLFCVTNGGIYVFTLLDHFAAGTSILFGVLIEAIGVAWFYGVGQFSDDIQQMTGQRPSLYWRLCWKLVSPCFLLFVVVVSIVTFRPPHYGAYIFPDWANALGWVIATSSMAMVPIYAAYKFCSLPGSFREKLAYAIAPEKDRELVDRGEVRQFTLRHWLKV
5-hydroxytryptamine receptor 1D (Homo sapiens), sequence (P28221 whole entry): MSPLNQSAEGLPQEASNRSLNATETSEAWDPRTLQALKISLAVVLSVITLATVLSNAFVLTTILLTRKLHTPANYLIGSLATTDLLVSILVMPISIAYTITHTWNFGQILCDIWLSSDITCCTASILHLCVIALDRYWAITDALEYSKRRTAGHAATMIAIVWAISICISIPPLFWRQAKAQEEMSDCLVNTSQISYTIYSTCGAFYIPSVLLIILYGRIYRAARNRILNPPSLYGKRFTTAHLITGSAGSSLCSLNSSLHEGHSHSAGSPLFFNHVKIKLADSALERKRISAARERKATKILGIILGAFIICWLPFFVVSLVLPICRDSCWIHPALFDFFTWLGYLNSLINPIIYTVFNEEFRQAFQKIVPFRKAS
5-hydroxytryptamine receptor 1E (Homo sapiens), sequence (P28566 whole entry): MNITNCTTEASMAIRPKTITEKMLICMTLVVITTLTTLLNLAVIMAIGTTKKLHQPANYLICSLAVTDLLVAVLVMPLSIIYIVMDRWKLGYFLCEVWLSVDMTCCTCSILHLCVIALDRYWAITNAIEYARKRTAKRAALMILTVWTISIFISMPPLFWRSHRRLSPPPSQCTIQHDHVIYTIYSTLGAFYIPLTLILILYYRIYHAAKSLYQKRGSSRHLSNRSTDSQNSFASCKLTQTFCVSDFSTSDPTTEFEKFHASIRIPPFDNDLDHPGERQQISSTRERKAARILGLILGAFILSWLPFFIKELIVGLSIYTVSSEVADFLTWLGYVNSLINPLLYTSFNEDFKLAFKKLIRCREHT
Sigma intracellular receptor 2 (Homo sapiens), sequence (Q5BJF2 whole entry): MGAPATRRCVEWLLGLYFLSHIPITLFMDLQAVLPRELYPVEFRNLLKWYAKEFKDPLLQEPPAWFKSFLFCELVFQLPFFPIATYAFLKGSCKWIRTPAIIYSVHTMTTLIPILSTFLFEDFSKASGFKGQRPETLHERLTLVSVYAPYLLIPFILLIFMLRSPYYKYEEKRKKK
5-hydroxytryptamine receptor 3A (Homo sapiens), sequence (P46098 whole entry): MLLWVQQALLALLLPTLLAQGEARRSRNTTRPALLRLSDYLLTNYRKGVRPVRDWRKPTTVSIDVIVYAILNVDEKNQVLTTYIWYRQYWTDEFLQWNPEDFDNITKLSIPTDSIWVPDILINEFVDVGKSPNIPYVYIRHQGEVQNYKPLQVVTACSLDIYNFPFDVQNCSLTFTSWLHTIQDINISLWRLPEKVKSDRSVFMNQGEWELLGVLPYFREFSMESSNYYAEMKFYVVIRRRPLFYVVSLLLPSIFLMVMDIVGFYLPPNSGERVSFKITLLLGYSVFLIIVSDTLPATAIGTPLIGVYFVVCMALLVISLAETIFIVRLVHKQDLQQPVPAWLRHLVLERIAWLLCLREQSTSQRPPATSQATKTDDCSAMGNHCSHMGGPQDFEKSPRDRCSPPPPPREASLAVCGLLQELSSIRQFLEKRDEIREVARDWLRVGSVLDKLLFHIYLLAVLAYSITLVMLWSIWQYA
Kappa-type opioid receptor (Homo sapiens), sequence (P41145 whole entry): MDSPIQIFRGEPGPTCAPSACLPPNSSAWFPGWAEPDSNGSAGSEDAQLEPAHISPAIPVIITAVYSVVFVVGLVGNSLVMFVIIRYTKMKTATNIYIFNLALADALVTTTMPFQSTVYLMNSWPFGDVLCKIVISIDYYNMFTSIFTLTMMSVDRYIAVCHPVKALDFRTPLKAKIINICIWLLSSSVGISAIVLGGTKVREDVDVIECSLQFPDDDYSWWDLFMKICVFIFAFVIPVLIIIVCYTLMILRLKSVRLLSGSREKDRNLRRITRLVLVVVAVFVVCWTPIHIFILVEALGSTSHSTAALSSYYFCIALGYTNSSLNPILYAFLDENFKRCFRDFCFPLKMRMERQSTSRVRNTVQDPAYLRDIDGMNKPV
Alpha-2C adrenergic receptor (Homo sapiens), sequence (P18825 whole entry): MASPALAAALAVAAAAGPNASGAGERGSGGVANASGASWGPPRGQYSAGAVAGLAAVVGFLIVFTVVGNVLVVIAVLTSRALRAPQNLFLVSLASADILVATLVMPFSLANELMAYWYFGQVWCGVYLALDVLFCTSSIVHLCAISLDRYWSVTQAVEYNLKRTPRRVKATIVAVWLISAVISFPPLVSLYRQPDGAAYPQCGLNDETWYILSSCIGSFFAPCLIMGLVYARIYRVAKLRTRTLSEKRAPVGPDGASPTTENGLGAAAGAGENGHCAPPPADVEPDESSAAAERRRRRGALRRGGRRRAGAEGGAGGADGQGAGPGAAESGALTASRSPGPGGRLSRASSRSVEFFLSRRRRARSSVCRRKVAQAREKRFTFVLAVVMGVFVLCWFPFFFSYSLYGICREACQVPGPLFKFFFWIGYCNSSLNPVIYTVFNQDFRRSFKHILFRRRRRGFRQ
5-hydroxytryptamine receptor 5A (Homo sapiens), sequence (P47898 whole entry): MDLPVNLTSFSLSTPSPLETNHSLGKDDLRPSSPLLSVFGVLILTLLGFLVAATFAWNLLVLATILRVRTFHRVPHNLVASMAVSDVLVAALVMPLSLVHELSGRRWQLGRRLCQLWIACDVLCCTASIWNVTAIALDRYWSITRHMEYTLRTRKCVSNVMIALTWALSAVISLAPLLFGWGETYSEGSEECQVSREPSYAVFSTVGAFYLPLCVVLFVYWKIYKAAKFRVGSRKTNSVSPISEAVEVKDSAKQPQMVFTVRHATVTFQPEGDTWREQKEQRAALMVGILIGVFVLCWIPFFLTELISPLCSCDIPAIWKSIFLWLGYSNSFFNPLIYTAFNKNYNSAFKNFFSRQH
5-hydroxytryptamine receptor 2B (Homo sapiens), sequence (P41595 whole entry): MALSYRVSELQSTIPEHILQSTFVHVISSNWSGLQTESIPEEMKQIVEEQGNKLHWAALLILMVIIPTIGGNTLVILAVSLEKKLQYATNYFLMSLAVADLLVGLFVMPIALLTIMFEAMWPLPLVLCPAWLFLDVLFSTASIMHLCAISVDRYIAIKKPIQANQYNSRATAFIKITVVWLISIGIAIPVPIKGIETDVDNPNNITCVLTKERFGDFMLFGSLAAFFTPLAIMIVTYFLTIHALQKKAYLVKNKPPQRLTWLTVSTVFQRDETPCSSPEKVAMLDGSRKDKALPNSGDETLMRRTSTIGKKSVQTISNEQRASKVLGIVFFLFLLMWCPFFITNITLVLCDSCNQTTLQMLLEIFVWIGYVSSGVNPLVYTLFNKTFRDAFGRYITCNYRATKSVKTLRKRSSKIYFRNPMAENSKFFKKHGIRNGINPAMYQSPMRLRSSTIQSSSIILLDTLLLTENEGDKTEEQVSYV
Sodium-dependent serotonin transporter (Homo sapiens), sequence (P31645 whole entry, looked up): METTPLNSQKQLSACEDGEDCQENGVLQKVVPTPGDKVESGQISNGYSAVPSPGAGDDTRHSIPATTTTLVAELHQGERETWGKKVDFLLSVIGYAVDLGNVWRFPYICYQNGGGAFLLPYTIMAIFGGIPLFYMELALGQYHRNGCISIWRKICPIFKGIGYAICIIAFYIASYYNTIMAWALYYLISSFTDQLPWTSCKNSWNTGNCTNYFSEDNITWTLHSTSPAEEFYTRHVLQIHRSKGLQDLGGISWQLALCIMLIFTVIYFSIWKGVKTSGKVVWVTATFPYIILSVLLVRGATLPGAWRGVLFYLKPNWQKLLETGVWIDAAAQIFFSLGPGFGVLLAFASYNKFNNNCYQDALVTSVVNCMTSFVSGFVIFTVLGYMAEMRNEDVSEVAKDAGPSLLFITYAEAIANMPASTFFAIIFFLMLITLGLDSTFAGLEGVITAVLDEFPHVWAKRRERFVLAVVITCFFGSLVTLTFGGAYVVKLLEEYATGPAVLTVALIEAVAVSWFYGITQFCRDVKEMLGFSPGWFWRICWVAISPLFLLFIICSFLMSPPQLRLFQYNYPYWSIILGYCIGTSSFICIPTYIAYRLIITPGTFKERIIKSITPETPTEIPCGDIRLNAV
Histamine H1 receptor (Homo sapiens), sequence (P35367 whole entry): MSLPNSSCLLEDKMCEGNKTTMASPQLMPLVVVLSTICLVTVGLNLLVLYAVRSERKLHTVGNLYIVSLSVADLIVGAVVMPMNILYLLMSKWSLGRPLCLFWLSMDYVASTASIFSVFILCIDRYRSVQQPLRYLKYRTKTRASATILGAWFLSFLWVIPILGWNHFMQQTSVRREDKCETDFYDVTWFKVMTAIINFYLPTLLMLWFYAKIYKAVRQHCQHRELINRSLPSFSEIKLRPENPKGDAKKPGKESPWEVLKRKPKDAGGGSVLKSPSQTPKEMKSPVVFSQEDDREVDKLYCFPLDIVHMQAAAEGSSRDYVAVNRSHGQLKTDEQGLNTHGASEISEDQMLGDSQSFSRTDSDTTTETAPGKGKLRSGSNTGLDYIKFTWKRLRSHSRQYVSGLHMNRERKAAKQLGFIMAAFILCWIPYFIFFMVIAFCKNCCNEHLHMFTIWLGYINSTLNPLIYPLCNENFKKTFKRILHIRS

CN(C)C(=O)c1sc2nc(N3CCC(S(C)(=O)=O)CC3)cc(C(F)(F)F)c2c1N [BI-5026]
> 10 µM (not active): IC50 [1]
active: inhibition [24] 80.5% | inhibition [27] 70.6%
inactive: inhibition [2] -1.1% | inhibition [3] 1.7% | inhibition [4] 2.45% | inhibition [5] 1.22% | inhibition [6] -7.86% | inhibition [7] 9.53% | inhibition [8] -6.93% | inhibition [9] 22.4% | inhibition [10] 3.36% | inhibition [11] 4.15% | inhibition [12] 2.32% | inhibition [14] 31.5% | inhibition [15] 2.96% | inhibition [16] 47.5% | inhibition [17] 24.2% | inhibition [18] -1.35% | inhibition [19] 6.7% | inhibition [20] 3.61% | inhibition [21] 1.12% | inhibition [22] 13% | inhibition [23] 0.25% | inhibition [25] 13.5% | inhibition [26] 10.3% | inhibition (Rattus norvegicus) 27.9% | inhibition [28] 24.5% | inhibition [29] -1.79% | inhibition [30] 7.05% | inhibition [31] 7.27% | inhibition [32] 22.8% | inhibition [33] 5.35% | inhibition [34] 13.4% | inhibition [35] 18.1% | inhibition [36] 11.6% | inhibition [37] 3.63% | inhibition [38] 40.6% | inhibition [39] 6.22% | inhibition [40] 8.58%
4.27 µM: Ki ([13]; read-out: Ki) | Ki ([13]; read-out: pKi (converted))
